Type in all cases: cell-based
The subject of assay [1] is Mouse myoblast cell line (C2C12). Briefly: muscle cell proliferation (microscope, MTS analysis). The settings on record: various concentrations, cultured for 4 days, FIGS. 3 and 4. The procedure: (§1) Mouse myoblast cell line (C2C12) used was purchased from American Type Culture Collection (ATCC). Muscle stem cells were collected from leg muscles of cows, pigs, and chickens, minced, and reacted with 1% Pronase enzyme at 37°C for 2 hours, followed by centrifugation at 1,000 g for 3 minutes. After centrifugation, the supernatant was removed, and the tissue was suspended in Dulbecco's Modified Eagle's Medium (DMEM) supplemented with 1% penicillin/streptomycin (hereinafter referred to as P/S) and 10% fetal bovine serum (hereinafter referred to as FBS), and then the tissue and cells were separated through a 100 µm filter. The separated cells were centrifuged at 1,000 g for 5 minutes, the supernatant was removed, and the cells were suspended in Ham's F10 growth medium containing 1% P/S, 20% FBS, and 5 ng/mL fibroblast growth factor 2 (FGF2), after which cells were transferred to a cell culture dish and cultured at 37°C in the presence of 5% CO2.
(§2) To identify the effect of quercetin on muscle stem cell proliferation, myoblasts and muscle stem cells being cultured in proliferation medium (Ham's F10 containing 1% P/S, 20% FBS, and 5 ng/mL FGF2) were treated with various concentrations of quercetin and cultured for 4 days. To compare proliferation rates, MTS analysis was performed. Myoblasts and muscle stem cells were cultured in a proliferation medium for 4 days, and after removing all of the medium, a culture medium in which proliferation medium and MTS reagent are mixed in a ratio of 8:2 was treated to the cells, followed by a reaction for 1 hour. The reacted culture medium was transferred to a 96-well microplate in a volume of 100 µL, and the absorbance of the culture medium contained in each well was measured at 490 nm using a microplate.
(§3) According to the Experimental Example 2, in order to identify the effect of quercetin on muscle cell proliferation, quercetin was added at various concentrations during the proliferation culture of myoblasts and muscle stem cells, and after culturing for 4 days, observation was made under a microscope, followed by MTS analysis for comparison of the proliferation rate.

In assay [2] the test system is bovine muscle stem cell. Described as above. The note with it: various concentrations, cultured for 4 days, FIGS. 3 and 4. The procedure:
as §1, §2, §3

The subject of assay [3] is chicken muscle stem cell. The description is as above. The settings on record: various concentrations, cultured for 4 days, FIGS. 3 and 4. On the procedure: as §1, §2, §3
For assay [4], the system named is porcine muscle stem cell. Described as above. The note with it: various concentrations, cultured for 4 days, FIGS. 3 and 4. The procedure:
as §1, §2, §3

The subject of assay [5] is Mouse myoblast cell line (C2C12). Briefly: muscle cell differentiation (microscope, creatine kinase activity).
In assay [6] the test system is bovine muscle stem cell. The assay is described as above. The note with it: 4 days. The procedure: as §1
(§4) To determine the effect of quercetin on muscle stem cell differentiation, myoblasts and muscle stem cells being differentiated were treated with different concentrations of quercetin in differentiation medium ([…]) and cultured for 4 days. To compare differentiation rates, creatine kinase activity was analyzed. Myoblasts and muscle stem cells were cultured in differentiation medium for 4 days, then all media were removed, followed by washing with phosphate buffer saline (PBS), 200 µL of new saline was added, and the cells were scraped and collected. Afterwards, the cells were disrupted through sonication, and the supernatant was separated through centrifugation. For analysis of creatine kinase activity, a mixture (100 µL of buffer, 10 µL of substrate, and 1 µL of enzyme) was prepared, and 100 µL of the mixture was treated to 10 µL of the supernatant. Afterwards, the absorbance at 340 nm was measured at 20 and 25 minutes after the start of the reaction using a microplate reader, and the value of creatine kinase activity (U/L) was calculated using the following Equation 1. [formula]
(§5) According to the Experimental Example 2, in order to identify the effect of quercetin on muscle cell differentiation, quercetin was added at various concentrations during differentiation culture of myoblasts and muscle stem cells, and after culturing for 4 days, observation was made under a microscope, followed by analysis of creatine kinase activity to compare the differentiation rate.

Assay [7] deals with chicken muscle stem cell. Described as above. The settings on record: 4 days. On the procedure: as §1, §4, §5
For assay [8], the system named is porcine muscle stem cell. The assay is described as above. The note with it: 4 days. The procedure: as §1, §4, §5
In assay [9] the test system is muscle differentiation-related factors (MYOD, MYOG, and MYH). Briefly: gene and protein expression of muscle differentiation-related factors (real-time PCR, Western blot). The note with it: 10 nM quercetin, FIG. 7. On the procedure: 1 mL of TRIzol (TRIzol™) reagent was added to the cultured cells, and the cells were crushed. 200 µLof chloroform was added to the crushed cells, and centrifugation was performed at 12,000 rpm for 10 minutes. After centrifugation, the upper clear water layer was transferred to a new tube, followed by addition of 500 µLof isopropanol. Afterwards, the mixture was mixed sufficiently and centrifuged at 12,000 rpm for 10 minutes. Thereafter, all supernatants except the RNA pellet were removed, and 1 mL of 70% ethanol was added, followed by washing. Afterwards, all ethanol was removed, and the RNA pellet was dissolved in distilled water containing diethylpyrocarbonate (hereinafter referred to as DEPC). The obtained RNA was quantified using a spectrophotometer, and then 2 µg of total RNA was reacted with reverse transcriptase to synthesize cDNA.
To identify an effect of quercetin on gene expression of muscle differentiation-related factors [myoblast determination protein 1 (hereinafter referred to as MYOD), myogenin (hereinafter referred to as MYOG), and myosin heavy chain (hereinafter referred to as MYH)], real-time PCR was performed. Synthesized cDNA and primers designed using NCBI's primer blast tool; and reagents containing SYBR green fluorescent substance were mixed. Real-time PCR was analyzed via the 7500 real-time PCR from Applied Biosystems.
To determine the effect of quercetin on the protein expression of muscle differentiation-related factors (MYOD, MYOG, and MYH), Western blot was performed. All media of cells being cultured were removed and washed with saline solution. A mixture containing RIPA buffer and 1% protease inhibitor was added to the cells and scraped. After centrifugation at 12,000 rpm for 10 minutes, the supernatant was recovered and quantified using a spectrophotometer. 60 µg of the extracted protein was electrophoresed on a 10% acrylamide gel and transferred to a polyvinylidene fluoride (PVDF) membrane (Milipore). Blocking was performed for 1 hour in tris-buffered saline (TBS) buffer containing 3% skim milk and 1% surfactant (tween-20), and the primary antibody was added. After reacting for 16 hours at 4°C, washing was performed three times for 10 minutes in TBS buffer containing 1% surfactant (Tween-20), followed by a reaction with the secondary antibody for 1 hour at room temperature. Afterwards, washing was performed three times for 10 minutes in TBS buffer containing 1% surfactant (tween-20), followed by development after adding Super Signal West Pico Chemiluminescent Substrate.
According to the above Experimental Example 4, to identify the effect of quercetin on the expression of factors related to muscle differentiation, 10 nM quercetin was added to the process of differentiating myoblasts and muscle stem cells, and gene and protein expression of the factors was analyzed.
On the technique in general: Quantitative PCR measures a nucleic acid by following its amplification.

The mark [10] stands for this setting: 10 nM and 100 nM treatment groups, FIG. 5.

For `O=c1c(O)c(-c2ccc(O)c(O)c2)oc2cc(O)cc(O)c12` [quercetin], the proliferation rate result in [1], in assay [2], in assay [3] and in [4] was “no significant change” throughout. In addition, the diameter of myotubes entry in [5] (mouse myoblast, 10 nM and 100 nM treatment groups, 4 days, FIG. 5) is “increased”; in assay [6] (setting [10]), “increased”; in assay [7] (setting [10]) it was “increased”; in assay [8] (setting [10]), “increased”. The creatine kinase activity result in [5] (mouse myoblast, 10 nM and 100 nM, 4 days, FIG. 6) was “significantly increased”; in assay [6] (10 nM and 100 nM, FIG. 6), “significantly increased”; in assay [7] (10 nM and 100 nM, FIG. 6), “significantly increased”; in assay [8] (10 nM and 100 nM, FIG. 6), “significantly increased”. Further, the “creatine kinase activity increase compared to the control group (Con)” value in assay [5] (mouse myoblasts, differentiation medium, quercetin 10 nM, antioxidant supplement diluted 1,000-fold, FIG. 8B) was 17%. The MYH expression result in assay [9] (bovine muscle stem cells), in assay [9] (chicken muscle stem cells), in assay [9] (mouse myoblasts) and in assay [9] (porcine muscle stem cells) was “significantly increased” each time. The MYOD expression result in assay [9] (bovine muscle stem cells), in assay [9] (mouse myoblasts) and in [9] (porcine muscle stem cells) was “significantly increased” in each case. The MYOG expression entry in [9] (bovine muscle stem cells), in assay [9] (chicken muscle stem cells), in assay [9] (mouse myoblasts) and in assay [9] (porcine muscle stem cells) was “significantly increased” each time.

Values taken from patent EP4685228A1, “MEDIUM COMPOSITION FOR PROMOTING MUSCLE CELL DIFFERENTIATION COMPRISING QUERCETIN AS ACTIVE INGREDIENT” (Industry Academic Cooperation Foundation of Yeungnam …, priority 2023, dated 2024).
